Assay results from article PMC10999543, “Identification of kinase modulators as host-directed therapeutics against intracellular methicillin-resistant Staphylococcus aureus” (Frontiers in Cellular and Infection Microbiology, 2024).
Where two headings read alike, the source gives them in different places.

Experiments:
HeLa cells = test: Compound screen by flow cytometry: HeLa cell count as surrogate readout of cell viability (z-scoreHeLa); assay type: cell-based, human
Procedure, shortened: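 HeLa cells were infected with GFP-MRSA (mean MOI 6.8 ± 4.6) for 1 h, and extracellular bacteria were killed with 30 µg/ml gentamicin. Cells were then incubated overnight with kinase inhibitors in 5 µg/ml gentamicin, in triplicate against DMSO controls. Flow-cytometric cell count served as a viability surrogate, expressed as a plate z-score.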

intracellular MRSA = assay type: cell-based, Staphylococcus aureus; conditions: for %GFP+ rep 1 / z-scoreMRSA+ rep 1: replicate 1; for %GFP+ rep 1 / %GFP+ rep 2 / %GFP+ rep 3 / z-scoreMRSA+ mean / z-scoreMRSA+ rep 1 / z-scoreMRSA+ rep 2 / z-scoreMRSA+ rep 3: MRSA-infected HeLa cells; for %GFP+ rep 2 / z-scoreMRSA+ rep 2: replicate 2; for %GFP+ rep 3 / z-scoreMRSA+ rep 3: replicate 3; for z-scoreMRSA+ mean: mean of 3 replicates
Procedure, shortened: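 HeLa cells infected with GFP-MRSA (MOI ~6.8), gentamicin-cleared, then incubated overnight at 37°C with inhibitors plus 5 µg/ml gentamicin; DMSO as negative control, triplicates. Flow cytometry gave % GFP-positive cells and cell count (viability surrogate); hits by plate z-score (MRSA ≤ -2, HeLa count ≥ -3).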

[1] = compound screen, HeLa cell count, mean of 3 replicates
[2] = compound screen, HeLa cell count, replicate 1
[3] = compound screen, HeLa cell count, replicate 2
[4] = compound screen, HeLa cell count, replicate 3
[5] = Yes/No: effect without cell death
[6] = PKIS compound screen raw data, HeLa cell count, replicate 1
[7] = PKIS compound screen raw data, HeLa cell count, replicate 2
[8] = PKIS compound screen raw data, HeLa cell count, replicate 3
[9] = PKIS compound screen, HeLa cell count, mean of 3 replicates
[10] = PKIS compound screen, HeLa cell count, replicate 1
[11] = PKIS compound screen, HeLa cell count, replicate 2
[12] = PKIS compound screen, HeLa cell count, replicate 3
[13] = PKIS compound screen, Yes/No call on z-scoreHeLa
[14] = PKIS compound screen, Yes/No call (effect without cell death)
[15] = PKIS compound screen, Yes/No call on z-scoreMRSA+

Row | SMILES | cell death (HeLa cells; Yes/No call from z-scoreHeLa) | z-scoreHeLa mean (HeLa cells; [1]) | z-scoreHeLa rep 1 (HeLa cells; [2]) | z-scoreHeLa rep 2 (HeLa cells; [3]) | z-scoreHeLa rep 3 (HeLa cells; [4]) | effect (intracellular MRSA; Yes/No call from z-scoreMRSA+) | hit (intracellular MRSA; [5]) | z-scoreMRSA+ mean (intracellular MRSA; compound screen) | cell count rep 1 (HeLa cells; [6]) | cell count rep 2 (HeLa cells; [7]) | cell count rep 3 (HeLa cells; [8]) | %GFP+ rep 1 (intracellular MRSA; PKIS compound screen raw data) [%] | %GFP+ rep 2 (intracellular MRSA; PKIS compound screen raw data) [%] | %GFP+ rep 3 (intracellular MRSA; PKIS compound screen raw data) [%] | z-scoreMRSA+ mean (intracellular MRSA; PKIS compound screen) | z-scoreMRSA+ rep 1 (intracellular MRSA; PKIS compound screen) | z-scoreMRSA+ rep 2 (intracellular MRSA; PKIS compound screen) | z-scoreMRSA+ rep 3 (intracellular MRSA; PKIS compound screen) | hit (intracellular MRSA; [14]) | effect (intracellular MRSA; [15]) | further results
1 | COc1cc(C=NNc2ncnc3c2cnn3-c2ccccc2)ccc1O [GW513184X] | No | 0.11 | -0.98 | 1.08 | 0.24 | No | No | -0.46 | – | – | – | – | – | – | – | – | – | – | – | – | cell count rep 1 (HeLa cells; PKIS compounds raw data, replicate 1, HeLa cell count): 3697; cell count rep 2 (HeLa cells; PKIS compounds raw data, replicate 2, HeLa cell count): 5698; cell count rep 3 (HeLa cells; PKIS compounds raw data, replicate 3, HeLa cell count): 7463; %GFP+ rep 1 (intracellular MRSA; PKIS compounds raw data): 11.7%; %GFP+ rep 2 (intracellular MRSA; PKIS compounds raw data): 13.3%; %GFP+ rep 3 (intracellular MRSA; PKIS compounds raw data): 13.0%; z-scoreMRSA+ rep 1 (intracellular MRSA; compound screen): -0.47; z-scoreMRSA+ rep 2 (intracellular MRSA; compound screen): -0.0654; z-scoreMRSA+ rep 3 (intracellular MRSA; compound screen): -0.85
2 | Fc1cc(Cl)ccc1Nc1ccnc2cc(I)ccc12 [GW551191X] | No | 0.93 | 1.37 | 0.42 | 1.00 | No | No | 0.40 | 6255 | 4849 | 6828 | 27.7 | 23.2 | 23.8 | – | – | – | – | – | – | z-scoreMRSA+ rep 1 (intracellular MRSA; compound screen): 0.57; z-scoreMRSA+ rep 2 (intracellular MRSA; compound screen): 0.14; z-scoreMRSA+ rep 3 (intracellular MRSA; compound screen): 0.48
3 | Cc1ccc(O)cc1Nc1ccnc2cc(-c3ccc(CN4CCCCC4)o3)ccc12 [GW557777X] | – | – | – | – | – | – | – | – | 30186 | 37597 | 49690 | 13.1 | 14.2 | 14.8 | -1.44 | -1.51 | -1.30 | -1.52 | No | No | z-scoreHeLa mean (HeLa cells; [9]): 1.17; z-scoreHeLa rep 1 (HeLa cells; [10]): 1.53; z-scoreHeLa rep 2 (HeLa cells; [11]): 0.52; z-scoreHeLa rep 3 (HeLa cells; [12]): 1.46; cell death (HeLa cells; [13]): No
4 | Cc1ccc(O)cc1Nc1ccnc2ccc(S(C)(=O)=O)cc12 [GW559768X] | – | – | – | – | – | – | – | – | – | – | – | 8.1 | 10.1 | 9.8 | -2.90 | -3.11 | -2.53 | -3.05 | Yes | Yes | cell death (HeLa cells): No; cell count rep 1 (HeLa cells; human): 30393; cell count rep 2 (HeLa cells; human): 35205; cell count rep 3 (HeLa cells; human): 44674; z-scoreHeLa mean (HeLa cells; human): 0.77; z-scoreHeLa rep 1 (HeLa cells; human): 1.56; z-scoreHeLa rep 2 (HeLa cells; human): 0.08; z-scoreHeLa rep 3 (HeLa cells; human): 0.66
5 | Fc1cc(Cl)ccc1Nc1ccnc2cc(-c3ccc(CN4CCSCC4)o3)ccc12 [GW560106X] | – | – | – | – | – | – | – | – | 31348 | 29129 | 34674 | 16.0 | 19.0 | 19.0 | -0.23 | -0.59 | 0.14 | -0.24 | No | No | z-scoreHeLa mean (HeLa cells; [9]): -0.095; z-scoreHeLa rep 1 (HeLa cells; [10]): 1.70; z-scoreHeLa rep 2 (HeLa cells; [11]): -1.06; z-scoreHeLa rep 3 (HeLa cells; [12]): -0.93; cell death (HeLa cells; [13]): No
